Legend:
Myc/Max binding to DNA = Myc/Max binding to DNA (Homo sapiens, UniProt P01106); experiment: Electrophoretic mobility shift assay (EMSA) of Myc/Max binding to DNA; type: biochemical; conditions: for remaining activity at 100 µM / Bound DNA (%) (100uM): 100 uM test compound; for remaining activity at 100 µM: read-out: Bound DNA (%) (100uM); for remaining activity at 200 µM: 200 uM test compound, read-out: Bound DNA (%) (200uM); for remaining activity at 50 µM: read-out: Bound DNA (%) (50uM)
Sequence of Myc/Max binding to DNA (P01106 whole entry): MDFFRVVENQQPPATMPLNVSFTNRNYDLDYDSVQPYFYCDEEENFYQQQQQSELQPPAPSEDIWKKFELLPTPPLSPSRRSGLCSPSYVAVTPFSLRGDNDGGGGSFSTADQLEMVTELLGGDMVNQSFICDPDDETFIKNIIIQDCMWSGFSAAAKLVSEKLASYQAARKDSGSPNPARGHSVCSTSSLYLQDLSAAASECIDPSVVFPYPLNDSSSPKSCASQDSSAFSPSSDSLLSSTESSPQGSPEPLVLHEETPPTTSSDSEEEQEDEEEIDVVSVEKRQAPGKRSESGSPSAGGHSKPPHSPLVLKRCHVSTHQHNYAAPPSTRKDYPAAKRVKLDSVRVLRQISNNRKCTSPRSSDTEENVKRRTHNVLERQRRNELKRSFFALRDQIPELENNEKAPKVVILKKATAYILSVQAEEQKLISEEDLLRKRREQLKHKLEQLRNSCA
Outline: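 Electrophoretic mobility shift assay of Myc/Max binding to DNA. Compounds tested at 200 μM, 100 μM and 50 μM.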

[1] = system: cMyc wild-type (WT) and a cMyc KO line; experiment: Cell viability assay against cMyc WT and cMyc KO line; type: cell-based; conditions: FIG. 4
Procedure: Min9 (NUCC-0176234) was also tested in a cell viability assay against a cMyc wild-type (WT) and a cMyc KO line.

[2] = system: DNA damage (rH2AX staining); experiment: rH2AX staining assay for DNA damage; type: cell-based
Procedure: Min9 (NUCC-0176234) was also tested for its ability to cause DNA damage in an rH2AX staining assay. We would not expect cMyc-targeting agents to produce significant DNA damage. Compounds that act directly against DNA such as doxorubicin do however. […] (See FIG. 6).

[3] = system: wild type and Myc knockout rat fibroblasts; experiment: Growth inhibition on wild type and Myc knockout rat fibroblasts; type: cell-based; conditions: FIG. 3; for selectivity of growth inhibition for Myc WT over Myc KO cells: wild type vs Myc knockout rat fibroblasts
From the text: We tested the top 13 active compounds in the first screen assay. […] More than half of the tested compounds show better growth inhibitory effect on Myc WT compared to Myc KO cells.

[4] = Pharmacokinetics in mice after intravenous dosing; type: in vivo; conditions: 5 mg/kg intravenously
Procedure: The pharmacokinetics of NUCC-176242 and NUCC-176248 were studied in mice by administering a dose of 5 mg/kg intravenously and measuring the plasma concentration versus time.

| SMILES | remaining activity at 100 µM (Myc/Max binding to DNA; EMSA) | remaining activity at 50 µM (Myc/Max binding to DNA; EMSA, 50 uM test compound) | also measured |
| --- | --- | --- | --- |
| CCc1ccc(Oc2c[nH]nc2-c2ccc(OCc3cnn(-c4ccccc4)c3)cc2O)cc1 [NUCC-0176234] | 79% |  | IC50 (Myc/Max binding to DNA): 123 µM; remaining activity at 200 µM (Myc/Max binding to DNA; EMSA): 10%; reduction of cell viability, WT vs KO line [1]: reduces cell viability much more in the WT line than the KO cells; DNA damage [2]: essentially no DNA damage |
| CCc1ccc(Oc2c(-c3ccc(OCc4ccc(Cl)cc4)cc3O)nn(C)c2C(F)(F)F)cc1 [NUCC-0176248] | 49% |  | IC50 (Myc/Max binding to DNA): 96 µM; remaining activity at 200 µM (Myc/Max binding to DNA; EMSA): 6%; effective concentration (dose with the greatest selectivity, growth inhibition Myc WT vs KO) [3]: 6 µM; selectivity of growth inhibition for Myc WT over Myc KO cells [3]: high specificity; in vivo metabolism (plasma concentration versus time) [4]: correlated well with the observed in vitro metabolism |
| CCc1ccc(Oc2c(-c3ccc(OCc4ccncc4)cc3O)n[nH]c2C(F)(F)F)cc1 [NUCC-0176250] |  |  | remaining activity at 200 µM (Myc/Max binding to DNA; EMSA): 57%; effective concentration (dose with the greatest selectivity, growth inhibition Myc WT vs KO) [3]: 50 µM; selectivity of growth inhibition for Myc WT over Myc KO cells [3]: great selectivity |
| Oc1cc(Nc2ccc(Cl)cc2)ccc1-c1cc(C(F)(F)F)[nH]n1 [compound 0200679] |  |  | Bound DNA (%) (50uM) (Myc/Max binding to DNA; EMSA, 50 uM test compound): 79%; Bound DNA (%) (100uM) (Myc/Max binding to DNA; EMSA): 38% |
| CCc1ccc(Oc2c(-c3ccc(Nc4ccc(Cl)cc4)cc3O)n[nH]c2C(F)(F)F)cc1 [compound 0200680] | 40% | 96% |  |
| CCc1ccc(Oc2c(-c3ccc(Oc4ccc(Cl)cc4)cc3O)n[nH]c2C(F)(F)F)cc1 [compound 0200681] | 8% | 90% |  |
| CCc1ccc(Oc2c(-c3ccc(O)cc3O)nn(C)c2C(F)(F)F)cc1 [compound 0200682] |  | 101% | Bound DNA (%) (100uM) (Myc/Max binding to DNA; EMSA): 95% |
| CCc1ccc(Oc2c(-c3ccccc3O)n[nH]c2C(F)(F)F)cc1 [compound 0200683] | 20% | 87% |  |
| CCc1ccc(Oc2c(-c3ccccc3O)nn(C)c2C(F)(F)F)cc1 [compound 0200684] | 101% | 102% |  |
| Oc1ccccc1C1=NNC(c2ccccc2)C1 (stereo not drawn) [compound 0200685] | 103% | 102% |  |
| Oc1cc(OCc2ccc(Cl)cc2)ccc1-c1[nH]nc(C(F)(F)F)c1-c1ccc2c(c1)OCCO2 [compound 0200686] | 87% | 98% |  |
| Cn1nc(C(F)(F)F)cc1-c1ccc(O)cn1 [compound 0200687] | 101% | 100% |  |
| Cn1nc(C(F)(F)F)cc1-c1ccc(N)cn1 [compound 0200688] | 103% | 102% |  |
| Cn1nc(C(F)(F)F)cc1-c1cnc(O)cn1 [compound 0200689] | 98% | 98% |  |
| Cn1nc(C(F)(F)F)cc1-c1ccc(OCc2ccc(Cl)cc2)cn1 [compound 0200690] | 95% | 98% |  |
| Cn1nc(C(F)(F)F)cc1-c1ccc(NCc2ccc(Cl)cc2)cn1 [compound 0200691] | 97% | 94% |  |
| Cn1nc(C(F)(F)F)cc1-c1cnc(OCc2ccc(Cl)cc2)cn1 [compound 0200692] | 89% | 97% |  |
| Oc1cc(Nc2ccc(Cl)c(Cl)c2)ccc1-c1cc(C(F)(F)F)[nH]n1 [compound 0200721] | 4% | 87% |  |
| c1ccc(COc2ccccc2-c2nn[nH]c2-c2ccccc2)cc1 [compound 0200722] | 104% |  |  |
| Cn1nc(C(F)(F)F)c(-c2cc(C(F)(F)F)cc(C(F)(F)F)c2)c1-c1ccc(O)cc1O [compound 0200723] | 36% | 88% |  |
| Cn1nc(-c2ccc(O)cc2O)c(-c2cc(C(F)(F)F)cc(C(F)(F)F)c2)c1C(F)(F)F [compound 0200724] | 105% |  |  |
| Oc1cc(OCc2ccc(Cl)cc2)ccc1-c1n[nH]c(C(F)(F)F)c1-c1ccc(C(F)(F)F)cc1 [compound 0200725] | 98% |  |  |

| SMILES | remaining activity at 100 µM (Myc/Max binding to DNA; EMSA) | remaining activity at 50 µM (Myc/Max binding to DNA; EMSA, 50 uM test compound) | also measured |
| --- | --- | --- | --- |
| Cn1nc(C(F)(F)F)c(-c2ccc(C(F)(F)F)cc2)c1-c1ccc(OCc2ccc(Cl)cc2)cc1O [compound 0200726] | 92% |  |  |
| Cn1nc(-c2ccc(OCc3ccc(Cl)cc3)cc2O)c(-c2ccc(C(F)(F)F)cc2)c1C(F)(F)F [compound 0200727] | 99% |  |  |
| Oc1cc(OCc2ccc(Cl)cc2)ccc1-c1n[nH]c(C(F)(F)F)c1-c1ccc(C(F)(F)F)c(Cl)c1 [compound 0200728] | 89% |  |  |
| Cn1nc(-c2ccc(OCc3ccc(Cl)cc3)cc2O)c(-c2ccc(C(F)(F)F)c(Cl)c2)c1C(F)(F)F [compound 0200729] | 43% | 82% |  |
| Oc1cc(OCc2ccc(Cl)cc2)ccc1-c1n[nH]c(C(F)(F)F)c1-c1cccc(C(F)(F)F)c1 [compound 0200730] | 77% | 93% |  |
| Cn1nc(-c2ccc(OCc3ccc(Cl)cc3)cc2O)c(-c2cccc(C(F)(F)F)c2)c1C(F)(F)F [compound 0200731] | 62% | 77% |  |
| Oc1cc(OCc2ccc(Cl)cc2)ccc1-c1n[nH]c(C(F)(F)F)c1-c1ccc(Cl)c(C(F)(F)F)c1 [compound 0200732] | 46% | 89% |  |
| Cn1nc(-c2ccc(OCc3ccc(Cl)cc3)cc2O)c(-c2ccc(Cl)c(C(F)(F)F)c2)c1C(F)(F)F [compound 0200733] | 97% |  |  |
| Oc1cc(OCc2ccc(Cl)cc2)ccc1-c1n[nH]c(C(F)(F)F)c1-c1ccc(F)c(C(F)(F)F)c1 [compound 0200734] | 91% |  |  |
| Cn1nc(C(F)(F)F)c(-c2ccc(F)c(C(F)(F)F)c2)c1-c1ccc(OCc2ccc(Cl)cc2)cc1O [compound 0200735] | 60% | 84% |  |
| Cn1nc(-c2ccc(OCc3ccc(Cl)cc3)cc2O)c(-c2ccc(F)c(C(F)(F)F)c2)c1C(F)(F)F [compound 0200736] | 86% |  |  |
| Oc1cc(OCc2ccc(Cl)cc2)ccc1-c1n[nH]c(C(F)(F)F)c1-c1ccc(C(F)(F)F)cc1Cl [compound 0200737] | 76% |  |  |
| Cn1nc(C(F)(F)F)c(-c2ccc(C(F)(F)F)cc2Cl)c1-c1ccc(OCc2ccc(Cl)cc2)cc1O [compound 0200738] | 18% | 91% |  |
| CCc1c(C(F)(F)F)n[nH]c1-c1ccc(OCc2ccc(Cl)cc2)cc1O [compound 0200739] | 78% |  |  |
| CCCc1c(C(F)(F)F)n[nH]c1-c1ccc(OCc2ccc(Cl)cc2)cc1O [compound 0200740] | 75% | 93% |  |
| Cn1cc(C(F)(F)F)c(-c2ccc(OCc3ccc(Cl)cc3)cn2)n1 [compound 0200741] | 103% |  |  |
| Cn1cc(C(F)(F)F)c(-c2ccc(NCc3ccc(Cl)cc3)cn2)n1 [compound 0200742] | 99% |  |  |
| Cn1cc(C(F)(F)F)c(-c2ccc(OCc3ccc(Cl)cc3)cc2F)n1 [compound 0200743] | 101% |  |  |
| Cn1nc(C(F)(F)F)cc1-c1ccc(OCc2ccc(Cl)cc2)cc1Cl [compound 0200744] | 62% |  |  |
| Cn1nc(C(F)(F)F)cc1-c1ccc(OCc2ccc(Cl)cc2)cc1N [compound 0200745] | 105% |  |  |
| Cn1cc(-c2ccc(OCc3ccc(Cl)cc3)cc2N)c(C(F)(F)F)n1 [compound 0200746] | 101% |  |  |
| Cn1cc(C(F)(F)F)c(-c2cnc(OCc3ccc(Cl)cc3)cn2)n1 [compound 0200747] | 105% |  |  |

Source: patent US20170253581A1, “SUBSTITUTED HETEROCYCLES AS c-MYC TARGETING AGENTS” (Northwestern University, priority 2016, published 2017)
